Here are results for ten molecules from PMC7363885, “Fluorescent artificial receptor-based membrane assay (FARMA) for spatiotemporally resolved monitoring of biomembrane permeability” (Communications Biology, 2020).

“Also recorded” adds a separate entry of the source. Like-named read-outs stand apart in the source and are kept apart here. Marks after values point to notes of the source that are not given here.

How the values of data set [1] were obtained:
Supplementary Table 3 | Qualitative assessment of membrane permeability for more tha n 90 different organic compoundsa investigated by the FARMA-assay with receptors FAR-1, FAR-2, and FAR-3, and, for comparison, investigations by the dye displacement signal generation strategy with the sensing ensembles (CB8•MV•2,6-ANS, CB8•MV•5HO-Trp, CB7•BE, and CB7•PAL). […]
a See also Fig. 2 in main text for chemical structures. b λexc = 400 nm, λobs = 450 nm. c λexc = 310 nm, λobs = […]
ethanol (10 mM stock). m Emerging excimer band at λobs = 500 nm was monitored. n Control experiment in the absence of host (CB8) was also carried out. o λobs = 500 nm was chosen to by-pass the self-fluorescence

The nature of the next data set: in vitro. An excerpt:
Elementary physical parameters, such as permeability coefficients, can be extracted from the full kinetic FARMA data. This kinetic profile → parameter mapping requires some assumptions to be made in regard to the permeation mechanism. We applied a reported permeation model for liposomes[31] to arrive at permeation rate constants (kp) and apparent permeability coefficients (Papp). The derivation of the mathematical relation (1), linking the fundamental permeability rate constant and permeability coefficient to experimental measurable kobs rate constants, the known total analyte and total FAR concentration, and the experimentally determined liposome radius (r), is shown in the Supplementary Information.1 Papp=kp⋅r/3=kobs/canalyte⋅cFAR⋅r/3 […]
The volume-to-surface correction factor r/3 accounts for the fact that the observed rates depend on the size, i.e., radius r, of the liposomal assembly. […] The initial-rate method can also be applied, see the Supplementary Information. Moreover, kobs/canalyte can be estimated by single-point measurements at selected canalyte concentration.
A solution of 2.5 mg/mL of POPC and 0.33 mg/mL of POPS in chloroform was purged with nitrogen and dried overnight under […] vacuum. […] The resulting FAR-loaded liposomes were separated from non-encapsulated species by size-exclusion chromatography (NAP-25 column), while maintaining the same buffer. The absence of non-encapsulated FAR was confirmed by adding a non-membrane-permeable species such as tryptophan to a fluorescence cuvette containing 25 µL of liposomes diluted in 1 mL HEPES (10 mM) buffer. Complete removal of non-encapsulated FAR is indicated by the absence of a significant fluorescence change upon Trp addition.
In a typical experiment, 20 µL of liposome solution loaded with FAR was diluted in 1 mL HEPES buffer (10 mM, pH 7.0) in a 1 mL quartz cuvette. An emission spectrum was recorded after 10 min of “equilibration time” on a Varian Eclipse spectrofluorometer thermostated at 22 °C with a water bath using λexc = 400 nm for FAR-1, λexc = 310 nm for FAR-2, and λexc = 330 nm for FAR-3. In the time-resolved experiments, the emission intensity at λobs = 450 nm for FAR-1, λobs = 370 nm for FAR-2, and λobs = 370 and 500 nm for FAR-3 (the latter is the emerging excimer band for certain FAR-3•analyte complexes) was recorded with an averaging time of 0.5 s. […] For single-point experiments, a full spectrum was recorded after a fixed time or several time intervals after analyte addition. […] Only FAR-analyte combinations were used for FARMA, for which no significant autofluorescence and competitive light absorption of the analyte occurred.
For each experiment, measurements from 6 injections were accumulated and the average of these traces was used for data analysis.
Calculation of the unimolecular permeation rate constants ( kp) and of the apparent permeability coefficients (Papp).
The passive diffusion (permeation) of small non-charged compounds follows a modified Fick’s law and can be expressed by a first order kinetics.1 Similar to first order chemical reactions, the kinetics curve can therefore be fitted monoexponentially to obtained the observed permeation rates (kobs). In our assay set-up, such an exponential fit is an approximation, since it neglects that a certain fraction of transported analyte is bound to the FAR and cannot exit the liposome. Nevertheless, the fit of the kinetic curves of the […]
approximation is justified.

The test system of the next data set is FAR-2. Put plainly: Fluorescence titration, FAR•analyte complex formation in homogeneous solution. Particulars: 10 mM HEPES buffer (pH 7), 1:1 binding model, error estimate ≤ 20%. As for the experimental part: (§1) Fluorescence titrations were carried out in aqueous HEPES buffer (10 mM, pH 7, 22 °C) unless stated otherwise. To a solution of the FAR (typically at 10–30 μM) was stepwise added a solution of the analyte (typically up to 2 mM) and the fluorescence spectra were recorded. The normalized emissions at 450 nm (FAR-1) or at 370 nm (FAR-2) were fitted with an equation for a 1 : 1 binding by a least-square fit. The resulting affinity constants are reported in Supplementary Table 1. Representative titration plots are shown in Supplementary Fig. 1.

The conditions of data set [2]: PAMPA; cited from earlier work. For orientation: The PAMPA barrier holds no transporters, so it reflects passive diffusion.
The next data set has as its system FAR-1. Put plainly: Fluorescence titration, FAR•analyte complex formation in homogeneous solution. The data set is classed as binding. Particulars: FAR-1; 10 mM HEPES buffer (pH 7); 1:1 binding model; error estimate ≤ 20%. As for the experimental part: as §1, with “Fig. 1. Note that the high CB8-dye binding affinities correspond to a near quantitative degree of host-dye complexation, i.e., quantitative formation of the FAR, such that the subsequent binding of the analyte can be treated independently.” for “Fig. 1.”

The conditions of data set [3]: 298 K; cited from earlier work.
In the next data set the test system is Caco-2. Particulars: cited from earlier work.
The conditions of data set [4]: Aliquot analysis/flat lipid bilayer (macroscopic bilayer of brain phospholipids); cited from earlier work.
Data set [5] can be described thus: FARMA in DOPC:DOPS compared to POPC:POPS liposomes. It is filed as in vitro ADME. Particulars: peer review file. The source says:
good choice since they give different degrees of packing of lipids. If the authors further utilize the liposomes for testing membrane permeability of some of the compounds appeared in the manuscript using FARMAs composed of such different types of lipids, the results would be informative for understanding relationships between permeability of compounds and lipid structures.
The FARMA method opens indeed a door for the systematic investigation of permeability in dependence on (i) different lipids, (ii) temperature, (iii) phase transitions, and (iv) additives. These studies are under way in our laboratories but we have now emphasized some key findings in regard to the transferability of the method:
- Investigation of additives: We show in the manuscript that different lipid composition are in princi-ple possible by adding cholesterol to the POPC and POPS membrane (Fig S7), causing a noticeable alteration of the permeation kinetics of tryptamine as a model analyte.
- Different lipid compositions: We have added a statement on page 10 (bottom) pointing to the possi-bility of preparing reporter-pair loaded liposomes with different lipid POPC:POPS compositions, ranging from 8:1 to 15:1 (our GUV preparations in the manuscript) to pure POPC (ref. 20 in the main […]

[6] abbreviates: monoexponential fit, analyte 40 µM (bulk), FAR-2 ca. 500 µM in the liposome interior, 20% error.
Setting [7] is: FARMA with FAR-loaded liposomes or GUVs.

As for `Clc1ccccc1Cl` [1,2-dichlorobenzene], the “Qualitative assessment of membrane permeability” value (“Qualitative assessment” below) in data set [1] is reported as “+”.
For the molecule `Oc1ccc2ccccc2c1` [2-naphthol], in “in vitro”, the “membrane permeability (in words)” value was “permeable”. The “Qualitative assessment” value in data set [1] is recorded as “+”.
Regarding `N#Cc1ccc(O)cc1` [4CN-phenol, 4-cyanophenol], in the data set “in vitro” (not told, pH 7), the “kobs” value came out at 40 and the “log(kobs)” value is 1.602. Also, the Ka in the data set on FAR-2 is recorded as 5.2 10^3 M−1. Moreover, the “Qualitative assessment” value in data set [1] is given as “+”. For the same molecule, the “Papp Literature” value in [2] is 17 10^−6 cm s^−1.
On to `Nc1ccccc1` [Aniline, aniline], for which the kobs in the data set “in vitro” (setting [6]) turned out to be 7.5 s–1; in the data set “in vitro” (source data of Fig. 5), 7.5. Also, the kp in the data set “in vitro” (not told, pH 7) is given as 9400^f. Besides, the “log(kobs)” value in the data set “in vitro” (source data of Fig. 5) stood at 0.8751. Also, the Ka is 33 10^3 M−1 in the data set with FAR-1 and 25 10^3 M−1 in the data set with FAR-2. Also, in [2], the “Papp Literature” value is on record as 76 10^−6 cm s^−1.
With `COc1ccc2cc3[n+](cc2c1OC)CCc1cc2c(cc1-3)OCO2` [BER, berberine], the “dissociation rate from CB7” value in data set [3] is 0.8 s⁻¹.
In the case of `c1ccc2[nH]ccc2c1` [Indole, indole], in “in vitro” (setting [7]), the “membrane permeability (in words)” value is “instantaneous; also recorded: permeating”. Besides, the kobs in “in vitro” (setting [6]) stood at 1.8 s–1; in “in vitro” (source data of Fig. 5) it was 1.8. For the same molecule, the kp in “in vitro” (not told, pH 7) is listed as 3200. Moreover, the “log(kobs)” value in “in vitro” (source data of Fig. 5) stood at 0.2553. In addition, the “Papp Literature” value is recorded as 57 10^−6 cm s^−1 in the data set with Caco-2 and 250 10^−6 cm s^−1 in data set [4].
As usually defined, the Papp is the rate of passage across a membrane or cell layer, normalised by area and donor concentration. Take `CC12CC3CC(C)(C1)CC(N)(C3)C2` [Memantine, 3,5-dimethyladamantan-1-amine, reference compound]: the Papp in the data set “in vitro” (not told, pH 7) was found to be 24 ×10⁻⁶ cm/s. Also, the “Papp Literature” value in the data set with Caco-2 was 43 10^−6 cm s^−1.
Regarding `CNC(=C[N+](=O)[O-])NCCSCc1ccc(CN(C)C)o1` [Ranitidine, ranitidine, reference compound], the Papp at 100 µM in “in vitro” (not told, pH 7) is 0.013 ×10⁻⁶ cm/s. Also, the Ka with FAR-1 is recorded as 2 10^3 M−1. Also, the “Papp Literature” value in the data set on Caco-2 (no passive permeation but active transport) is given as 0.49 10^−6 cm s^−1; in data set [2] it was 0.88 10^−6 cm s^−1.
For `NCCc1c[nH]c2ccc(O)cc12` [Serotonin, serotonin], in the data set “in vitro” (setting [7]), the “membrane permeability (in words)” value is given as “pass the membrane within several minutes to hours”. Moreover, in “in vitro” (not told, pH 7), the Papp at 16 µM came to 0.004 ×10⁻⁶ cm/s. Also, the Ka in the data set on FAR-1 is given as 5 10^3 M−1. The “permeation rate, factor lower for DOPC:DOPS compared to POPC:POPS liposomes” value in [5] is given as 2-4. The “Papp Literature” value in data set [4] was 1.1 10^−6 cm s^−1.
As to `Cc1ccc(C)cc1` [p-xylene, 1,4-dimethylbenzene], the kobs was 17 s–1 in “in vitro” (setting [6]) and 17 in “in vitro” (source data of Fig. 5). Moreover, in the data set “in vitro” (source data of Fig. 5), the “log(kobs)” value stood at 1.23. Besides, the “Qualitative assessment” value in data set [1] is on record as “+”.
